Reference: patent US20240011030A1, “TREATMENTS FOR RETINAL DEGENERATIVE DISEASES” (Novartis AG, priority 2020, published 2024)

B1: IFNα: type I interferon purchased from R&D Systems (protein, UniProt P01562 24-189, looked up)
Interferon alpha-1/13: CDLPETHSLDNRRTLMLLAQMSRISPSSCLMDRHDFGFPQEEFDGNQFQKAPAISVLHELIQQIFNLFTTKDSSAAWDEDLLDKFCTELYQQLNDLEACVMQEERVGETPLMNADSILAVKKYFRRITLYLTEKKYSPCAWEVVRAEIMRSLSLSTNLQERLRRKE

Assays:
Assay type in all cases: cell-based, human
[1] = system: DDX58/RIG-I; assay: CRISPR/Cas9 KO, IFNβ secretion by ELISA after nucleic acid stimulation; details: ARPE19-Cas9 cells, 0.25 μg/ml nucleic acid for 24 hours, FIG. 4A
Method: Further validation of the importance of RIG-I as an intracellular nucleic acid sensor was performed using CRISPR/Cas9 KO experiments in ARPE-19 cells. An ARPE-19 cell line stably expressing Cas9 (ARPE19-Cas9) was generated, along with control gRNA and RIG-I gRNA-transduced cell lines. ARPE-19 control gRNA and ARPE-19 RIG-I gRNA cells were generated by sgRNA expression in ARPE-19-Cas9 cells by lentiviral infection. The sgRNA sequence targeting DDX58/RIG-I was 5′-[…]-3′ (SEQ ID NO:1). Control sgRNA sequences used were: 5′-[…]-3′ (SEQ ID NO:8), 5′-[…]-3′ (SEQ ID NO:9), 5′-[…]-3′ (SEQ ID NO:10), and 5′-[…]-3′ (SEQ ID NO: 11). […] All cells were stimulated with 0.25 μg/ml nucleic acid for 24 hours, after which IFNβ secretion was measured by ELISA.
ARPE-19 cells stably expressing the Cas9 gene (ARPE19-Cas9) were generated by lentiviral transduction of ARPE-19 cells. […]
For ELISA, assays were run using Meso Scale Discovery plates (Meso Scale Diagnostics, Rockville, MD). […] Lysates or conditioned media were measured in 384-well plates using antibody pairs for ISG15 (R&D #AF4845, #A-830), IFNβ (R&D #DY814), IFNα1 (abcam #ab215408), IFNγ (R&D #DY285B), IFNλ1/3 (R&D #DY1598B), and cGAS (Cayman #23853, CST #66546). Protein levels were measured according to manufacturer instructions, and detected on a Meso Sector S 600 imager.

[2] = system: DDX58/RIG-I; assay: CRISPR/Cas9 KO, IL-6 secretion by ELISA after nucleic acid stimulation; details: ARPE-19-RIG-I KO, 0.25 μg/ml nucleic acid for 24 hours, FIG. 4B
Method: In addition to the type I IFN response, nucleic acid sensing can also activate NFκB-dependent cytokine release. IL-6 secretion was measured in ARPE19-Cas9, Control gRNA, and RIG-I gRNA cell line cultures 24 hours after nucleic acid stimulation to evaluate nucleic acid-induced NFκB activation in RPE cells. All cells were stimulated with 0.25 μg/ml nucleic acid for 24 hours, after which IL-6 secretion was measured by ELISA.
(§1) ARPE-19 cells stably expressing the Cas9 gene (ARPE19-Cas9) were generated by lentiviral transduction of ARPE-19 cells. Virus was harvested from supernatants of HEK-293T cells (ATCC) cotransfected with the in-house lentiviral vector pNGx_LV_c010 (39) and Lentiviral Packaging Plasmid Mix (Cellecta, Mountain View, CA; #CPCP-K2A) using TransIT-293 Transfection Reagent (MirusBio, Madison, WI). ARPE19-Cas9 cells were selected with 125 μg/mL HygromycinB (Invitrogen, Carlsbad, CA) and Cas9 expression was verified by western blot using Anti-FLAG primary antibody (Sigma-Aldrich #F1804). ARPE-19 RIG-I KO cells were generated by sgRNA expression in ARPE-19-Cas9 cells by lentiviral infection using the in-house lentiviral vector pNGx_LV_g003 (39). The sgRNA sequence targeting DDX58/RIG-I is 5′-[…]-3′ (SEQ ID NO: 1).

[3] = system: DDX58/RIG-I; assay: anti-RIG-I/DDX58 western blot verifying knockout; details: ARPE-19-Cas9 cells transduced with gRNA, FIG. 10D
Method: as §1, with “1). Control sgRNA sequences were:” for “1).”
Knockout was verified by western blot (FIG. 10D).
For western blot, samples (30 μg of protein) were dissolved in sample buffer (Invitrogen) and boiled for 5 min at 100° C. The sample was then separated by Criterion™ TGX™ precast gel electrophoresis and electrotransferred onto nitrocellulose membranes (Bio-Rad, Hercules, CA). […] The immuno-reactive proteins were detected using SuperSignal™ West Femto Maximum sensitivity substrate (ThermoFisher Scientific) and imaged on FluorChem M (ProteinSimple, San Jose, CA).

[4] = system: RPE cells; assay: ISG15 induction by IFN stimulation (ELISA); details: THP1, ARPE-19 or iPS-RPE cells, IFNs up to 100 μg/ml, 24 hours, FIGS. 2D to 2F
Method: To test whether IFNs can induce an IFN response and, if so, which IFNs can induce an IFN response, cells were treated with different IFNs (IFNα1, IFNβ, IFNγ, or IFNλ1/2/3), and ISG15 induction was measured. Cells were treated with different IFN types at 100 ng/ml each (FIG. 2D) or 0 ng/ml IFN, 0.1 ng/ml IFN, 1 ng/ml IFN, 10 ng/ml IFN, or 100 ng/ml IFN (FIGS. 2E and 2F). ISG15 expression in was detected by ELISA 24 hours after treatment as described above, using antibody pairs for ISG15 (R&D #AF4845, #A-830).
For ELISA, assays were run using Meso Scale Discovery plates (Meso Scale Diagnostics, Rockville, MD). Lysates were extracted using cell lysis buffer (CST #9803), and supplemented with protease and phosphatase inhibitors. Lysates or conditioned media were measured in 384-well plates using antibody pairs for ISG15 (R&D #AF4845, #A-830), IFNβ (R&D #DY814), IFNα1 (abcam #ab215408), IFNγ (R&D #DY285B), IFNλ1/3 (R&D #DY1598B), and cGAS (Cayman #23853, CST #66546). Protein levels were measured according to manufacturer instructions, and detected on a Meso Sector S 600 imager.

Molecule | IFNβ secretion response to all nucleic acid species tested [1] | poly(I:C)-induced IL-6 release [2] | DDX58 protein by western blot [3] | ISG15 induction in response to IFN stimulation [4]
5′-ACTCACCCTCCCTAAACCAG-3′ (expressed or natural sequence) [RIG-I gRNA] | completely abrogated | only partially reduced | lack of detectable DDX58 protein | 
B1 |  |  |  | primarily responded
